Experimental data as given in patent US7101872B2, “Farnesyl dibenzodiazepinone, and processes for its production” (Ecopia BioSciences, Inc., priority 2003, dated 2006).

Assays:
Assay in all cases: NCI panel SRB growth inhibition
Type in all cases: cell-based
786-0 = conditions: Homo sapiens, 786-0, Renal, 48 h
Experimental: (§1) The operation of this unique screen utilizes […] different human tumor cell lines, representing leukemia, melanoma and cancers of the lung, colon, brain, ovary, breast, prostate, and kidney.
(§2) Culture conditions and plating: The human tumor cell lines of the cancer-screening panel were grown in RPMI 1640 medium containing 5% fetal bovine serum and 2 mM L-glutamine. For a typical screening experiment, cells were inoculated into 96 well microtiter plates in 100 μL at plating densities ranging from 5,000 to 40,000 cells/well depending on the doubling time of individual cell lines (Table 5). After cell inoculation, the microtiter plates were incubated at 37° C., 5% CO2, 95% air and 100% relative humidity for 24 h prior to addition of experimental drugs. After 24 h, two plates of each cell line were fixed in situ with TCA, to represent a measurement of the cell population for each cell line at the time of drug addition (Tz). Evaluation of inhibitory activity on cell proliferation: ECO-04601 was provided as a lyophilized powder with an estimated purity of 90+%. The compound was stored at −20° C. until day of use. ECO-04601 was solubilized in dimethyl sulfoxide at 400-fold the desired final maximum test concentration. At the time of drug addition, an aliquot of frozen concentrate was thawed and diluted to twice the desired final maximum test concentration with complete medium containing 50 μg/mL gentamicin. Additional four, 10-fold or Y2 log serial dilutions were made to provide a total of five drug concentrations plus control. Aliquots of 100 μl of these different drug dilutions were added to the appropriate microtiter wells already containing 100 μl of medium, resulting in the required final drug concentrations (8.0×10^−5 M to 8.0×10^−9 M).
(§3) Following drug addition, the plates were incubated for an additional 48 h at 37° C., 5% CO2, 95% air, and 100% relative humidity. For adherent cells, the assay was terminated by the addition of cold TCA. Cells were fixed in situ by the gentle addition of 50 μl of cold 50% (w/v) TCA (final concentration, 10% TCA) and incubated for 60 minutes at 4° C. Supernatants were discarded, and the plates were washed five times with tap water and air-dried. Sulforhodamine B (SRB) solution (100 μl) at 0.4% (w/v) in 1% acetic acid was added to each well, and plates were incubated for 10 minutes at room temperature. After staining, unbound dye was removed by washing five times with 1% acetic acid and the plates were air-dried. Bound stain was subsequently solubilized with 10 mM trizma base, and the absorbance was read on an automated plate reader at a wavelength of 515 nm. For suspension cells, the methodology was the same except that the assay was terminated by fixing settled cells at the bottom of the wells by gently adding 50 μl of 80% TCA (final concentration, 16% TCA).
(§4) The growth inhibitory activity of ECO-04601 was measured by NCI utilizing the GI50 value, rather than the classical IC50 value.

A549/ATCC = conditions: Homo sapiens, Non-Small Cell Lung, 48 h
Experimental: as §1, §2, §3, §4

EKVX = conditions: Homo sapiens, Non-Small Cell Lung, 48 h
Experimental: as §1, §2, §3, §4

HCT-116 = conditions: Homo sapiens, HCT-116, Colon, 48 h
Experimental: as §1, §2, §3, §4

HOP-62 = conditions: Homo sapiens, HOP-62, Non-Small Cell Lung, 48 h
Experimental: as §1, §2, §3, §4

IGR-OV1 = conditions: Homo sapiens, IGROV-1, IGR-OV1, Ovarian, 48 h
Experimental: as §1, §2, §3, §4

K-562 = conditions: Homo sapiens, K562, K-562, Leukemia, 48 h
Experimental: as §1, §2, §3, §4

MDA-MB-435 = conditions: Homo sapiens, MDA-MB-435, Breast, 48 h
Experimental: as §1, §2, §3, §4

NCI-H226 = conditions: Homo sapiens, NCI-H226, Non-Small Cell Lung, 48 h
Experimental: as §1, §2, §3, §4

NCI-H460 = conditions: Homo sapiens, NCI-H460, Non-Small Cell Lung, 48 h
Experimental: as §1, §2, §3, §4

NCI/ADR-RES = conditions: Homo sapiens, Breast, 48 h
Experimental: as §1, §2, §3, §4

OVCAR-3 = conditions: Homo sapiens, OVCAR-3, Ovarian, 48 h
Experimental: as §1, §2, §3, §4

OVCAR-5 = conditions: Homo sapiens, OVCAR-5, Ovarian, 48 h
Experimental: as §1, §2, §3, §4

OVCAR-8 = conditions: Homo sapiens, OVCAR-8, Ovarian, 48 h
Experimental: as §1, §2, §3, §4

RPMI-8226 = conditions: Homo sapiens, RPMI-8226, Leukemia, 48 h
Experimental: as §1, §2, §3, §4

SF-268 = conditions: Homo sapiens, SF-268, CNS, 48 h
Experimental: as §1, §2, §3, §4

SF-539 = conditions: Homo sapiens, SF-539, CNS, 48 h
Experimental: as §1, §2, §3, §4

SK-MEL-28 = conditions: Homo sapiens, SK-MEL-28, Melanoma, 48 h
Experimental: as §1, §2, §3, §4

SK-OV-3 = conditions: Homo sapiens, SK-OV-3, Ovarian, 48 h
Experimental: as §1, §2, §3, §4

SNB-19 = conditions: Homo sapiens, SNB-19, CNS, 48 h
Experimental: as §1, §2, §3, §4

SW-620 = conditions: Homo sapiens, SW-620, Colon, 48 h
Experimental: as §1, §2, §3, §4

U251 = conditions: Homo sapiens, U-251, U251, CNS, 48 h
Experimental: as §1, §2, §3, §4

UACC-257 = conditions: Homo sapiens, UACC-257, Melanoma, 48 h
Experimental: as §1, §2, §3, §4

UACC-62 = conditions: Homo sapiens, UACC-62, Melanoma, 48 h
Experimental: as §1, §2, §3, §4

UO-31 = conditions: Homo sapiens, UO-31, Renal, 48 h
Experimental: as §1, §2, §3, §4

## CC(C)=CCC/C(C)=C/CC/C(C)=C/CN1C(=O)c2cccc(O)c2Nc2c(O)cc(O)cc21 [ECO-04601, 10-farnesyl-4,6,8-trihydroxy-dibenzodiazepin-11-one]
786-0
  GI50: 6.99 µM
A549/ATCC
  GI50: 9.1 µM
EKVX
  GI50: 0.23 µM
HCT-116
  GI50: 2.92 µM
HOP-62
  GI50: 8.29 µM
IGR-OV1
  GI50: 3.11 µM
K-562
  GI50: 1.43 µM
MDA-MB-435
  GI50: 15.3 µM
NCI-H226
  GI50: 2 µM
NCI-H460
  GI50: 13.6 µM
NCI/ADR-RES
  GI50: 18.3 µM
OVCAR-3
  GI50: 13.5 µM
OVCAR-5
  GI50: 2.81 µM
OVCAR-8
  GI50: 2.65 µM
RPMI-8226
  GI50: 3.15 µM
SF-268
  GI50: 4.94 µM
SF-539
  GI50: 0.0075 µM
SK-MEL-28
  GI50: 11.6 µM
SK-OV-3
  GI50: 4 µM
SNB-19
  GI50: 2.9 µM
SW-620
  GI50: 2.72 µM
U251
  GI50: 2.19 µM
UACC-257
  GI50: 2.31 µM
UACC-62
  GI50: 1.55 µM
UO-31
  GI50: 19.7 µM
